Like-named read-outs stand apart in the source and are kept apart here.
How the values were obtained:
Bacillus subtilis spores = test: Bacillus subtilis spore survival by MALS, AODC and 24-hour CFU count; type: cell-based
Procedure: The efficacy of ozone in the absence of tetrasilver tetroxide was evaluated by challenging Bacillus subtilis spores with 2 ppm ozone and measuring the survival rate over time by MALS, acridine orange direct counts (AODC) and by counting colony forming units (CFU) at 24 hours.
Bacillus subtilus spore suspensions in water were challenged with 2 ppm tetrasilver tetroxide and […] ozone to evaluate the killing efficacy of the combination. The survival rate over time was measured by MALS, AODC and counting colony forming units at 24 hours.

[1] = Procedure: Ozone concentrations were measured by a chemical oxidation of indigo dye by using an indigo dye […] manufactured by HACH, Inc.
6.1 mg/L (6.1 ppm) of ozone was provided in deionized, distilled water over a 15 minute period. The solution was allowed to stand with stirring by a magnetic stirrer over a 24-hour period, taking periodic readings of the ozone concentration.

E. coli K12 = settings: 10 ppm or less tetrasilver tetroxide, within 30 minutes, other studies; cited from earlier work
P. aeruginosa = test: Ozone kill of P. aeruginosa test culture; type: cell-based; settings: 3.2 ppm ozone, 1 minute
Procedure: (§1) Ozone is, of course, effective against enteric pathogens. For example, adding 3.2 ppm 03 to a test culture kills 1.95×10^6 cells/mL of E. coli in 1 minute and kills 1.5×10^6 cells/mL of P. aeruginosa in 1 minute.

E. coli = test: Ozone kill of E. coli test culture; type: cell-based; settings: 3.2 ppm ozone, 1 minute
Procedure: as §1

[2] = B. subtilis spores, 2 ppm ozone, treatment time 0
[3] = B. subtilis spores, 2 ppm ozone, treatment time 5
[4] = B. subtilis spores, 2 ppm ozone, treatment time 10
[5] = B. subtilis spores, 2 ppm ozone, treatment time 15
[6] = B. subtilis spores, 2 ppm ozone, treatment time 20
[7] = B. subtilis spores, 2 ppm ozone, treatment time 30

[Ag+].[Ag+].[Ag+].[Ag+].[O-2].[O-2].[O-2].[O-2] [tetrasilver tetroxide]
antimicrobial effect (MALS graph, FIG. 3) (Bacillus subtilis spores; sixty-minute treatment with 2 ppm tetrasilver tetroxide): little more effective than the untreated control | measurable oxidation as measured by the indigo dye method ([1]; without ozone): neither | kills % of E. coli K12 strain (E. coli K12): 100%

O=[O+][O-] [ozone]
MALS log intensity vs time of exposure (FIG. 1) (Bacillus subtilis spores; B. subtilis spores, 2 ppm ozone, increasing time of exposure): reduction in the log intensity | 24-Hour Count (Bacillus subtilis spores; [2]): 2.10 × 10^6 cfu/mL | 24-Hour Count % AODC (Bacillus subtilis spores; [2]): 100 % AODC | 24-Hour Count % control (Bacillus subtilis spores; [2]): 100 % control | AODC (Bacillus subtilis spores; [2]): 2.34 × 10^6 spores/mL | AODC % control (Bacillus subtilis spores; [2]): 100 % control | MALS % control (Bacillus subtilis spores; [2]): 100 % control | MALS intensity (Bacillus subtilis spores; [2]): 2436.6 | 24-Hour Count (Bacillus subtilis spores; [3]): 1.23 × 10^6 cfu/mL | 24-Hour Count % AODC (Bacillus subtilis spores; [3]): 76.9 % AODC | 24-Hour Count % control (Bacillus subtilis spores; [3]): 58.5 % control | AODC (Bacillus subtilis spores; [3]): 1.6 × 10^6 spores/mL | AODC % control (Bacillus subtilis spores; [3]): 68.3 % control | MALS % control (Bacillus subtilis spores; [3]): 65.33 % control | MALS intensity (Bacillus subtilis spores; [3]): 1591.92 | 24-Hour Count (Bacillus subtilis spores; [4]): 1.68 × 10^5 cfu/mL | 24-Hour Count % AODC (Bacillus subtilis spores; [4]): 14.5 % AODC | 24-Hour Count % control (Bacillus subtilis spores; [4]): 8.0 % control | AODC (Bacillus subtilis spores; [4]): 1.16 × 10^6 spores/mL | AODC % control (Bacillus subtilis spores; [4]): 49.5 % control | MALS % control (Bacillus subtilis spores; [4]): 51.89 % control | MALS intensity (Bacillus subtilis spores; [4]): 1264.26 | 24-Hour Count (Bacillus subtilis spores; [5]): 1.80 × 10^3 cfu/mL | 24-Hour Count % AODC (Bacillus subtilis spores; [5]): 0.14 % AODC | 24-Hour Count % control (Bacillus subtilis spores; [5]): 0.09 % control | AODC (Bacillus subtilis spores; [5]): 1.29 × 10^6 spores/mL | AODC % control (Bacillus subtilis spores; [5]): 55.1 % control | MALS % control (Bacillus subtilis spores; [5]): 42.67 % control | MALS intensity (Bacillus subtilis spores; [5]): 1039.64 | 24-Hour Count (Bacillus subtilis spores; [6]): 1.82 × 10^2 cfu/mL | 24-Hour Count % AODC (Bacillus subtilis spores; [6]): 0.04 % AODC | 24-Hour Count % control (Bacillus subtilis spores; [6]): 0.009 % control | AODC (Bacillus subtilis spores; [6]): 4.87 × 10^5 spores/mL | AODC % control (Bacillus subtilis spores; [6]): 20.8 % control | MALS % control (Bacillus subtilis spores; [6]): 34.94 % control | MALS intensity (Bacillus subtilis spores; [6]): 851.5 | 24-Hour Count (Bacillus subtilis spores; [7]): 10 cfu/mL | 24-Hour Count % AODC (Bacillus subtilis spores; [7]): 0.002 % AODC | 24-Hour Count % control (Bacillus subtilis spores; [7]): 0.00005 % control | AODC (Bacillus subtilis spores; [7]): 5.03 × 10^5 spores/mL | AODC % control (Bacillus subtilis spores; [7]): 21.5 % control | MALS % control (Bacillus subtilis spores; [7]): 27.96 % control | MALS intensity (Bacillus subtilis spores; [7]): 681.2 | antimicrobial effect (MALS graph, FIG. 3) (Bacillus subtilis spores; twenty-minute treatment with 0.3 ppm ozone): significant killing effect | ozone at 18 hours relative to that expected in the absence of tetrasilver tetroxide ([1]; 2 ppm tetrasilver tetroxide added, 18 hours): approximately an order of magnitude higher | ozone concentration ([1]; 2 ppm tetrasilver tetroxide added, after 18 hours): 0.12 ppm | ozone oxidizing activity ([1]; 2 ppm tetrasilver tetroxide added, by 24 hours): 0.03 ppm | half-life of ozone ([1]; 6.1 ppm ozone initially in deionized, distilled water, no tetrasilver tetroxide): approximately 2 hours | ozone concentration ([1]; 6.1 ppm ozone initially in deionized, distilled water, stirred, by 2 hours): 3 ppm | ozone concentration ([1]; 6.1 ppm ozone initially in deionized, distilled water, stirred, by 18 hours): 0.01 ppm | cells killed (P. aeruginosa): 1.5×10^6 cells/mL | cells killed (E. coli): 1.95×10^6 cells/mL

Source: patent US6346201B1, “Ozonated solutions of tetrasilver tetroxide” (priority 2000, dated 2002)
